# Experimental data: patent US8609836B2, “4-aryl-2-anilino-pyrimidines” (Janssen Pharmaceutica NV, priority 2008, dated 2013)
# pIC50: −log10 of the molar value.
# Legend:
# PLK1 T210D (h) = PLK1 T210D (h) (Homo sapiens, UniProt P53350, T210D); assay: PLK1 human kinase inhibition, SPA; assay type: biochemical; settings: read-out: PLK1 pIC50 (converted)
# Method: (§1) The in vitro inhibition of a panel of kinases was assessed using either the scintillation proximity assay (SPA) as described by Cook, N. D. et al., Advances in Experimental Medicine and Biology (1991), 36; p. 525-528.
# (§2) In the SPA technology the activity of the kinase of interest is measured using an appropriate biotinylated substrate that is incubated with the aforementioned kinase protein in the presence of (^33P) radiolabeled ATP. (^33P) Phosphorylation of the substrate is subsequently measured through binding of the phosphorylated substrate to streptavidine coated beads that are based on the scintillant poly(vinyl toluene) (PVT-Beads). The scintillation intensity is detected by imaging on Leadseeker.
# (§3) All kinases are pre-diluted to a 10× working concentration prior to addition into the assay. The composition of the dilution buffer for each kinase is detailed below.
# In a final reaction volume of 30 μl, PLK1 T210D (h) (0.125 ng/ml) is incubated with 50 mM Hepes pH 8.0, 2 mM MnCl2, 1 mM DTT, 2 μM of peptide Biotin-Tds linker-[…], 0.1 μM ATP and 2 nM [γ-^33P-ATP] (6.0 μCi/ml). After incubation of 40 minutes at room temperature, the reaction is stopped by addition of 40 μL of stop solution containing 8.7 mM EDTA, BSA 0.17%, 0.17% Triton X-100, 25 mg/ml SPA beads (GE-healthcare). The plate is centrifuged and read for Scintillation imaging on Leadseeker.
# PLK4 (h) = PLK4 (h) (Homo sapiens, UniProt O00444); assay: PLK-4 human kinase inhibition, scintillation proximity assay (SPA); assay type: biochemical; settings: read-out: PLK4 pIC50 (converted)
# Sequence of PLK4 (h) (O00444 whole entry): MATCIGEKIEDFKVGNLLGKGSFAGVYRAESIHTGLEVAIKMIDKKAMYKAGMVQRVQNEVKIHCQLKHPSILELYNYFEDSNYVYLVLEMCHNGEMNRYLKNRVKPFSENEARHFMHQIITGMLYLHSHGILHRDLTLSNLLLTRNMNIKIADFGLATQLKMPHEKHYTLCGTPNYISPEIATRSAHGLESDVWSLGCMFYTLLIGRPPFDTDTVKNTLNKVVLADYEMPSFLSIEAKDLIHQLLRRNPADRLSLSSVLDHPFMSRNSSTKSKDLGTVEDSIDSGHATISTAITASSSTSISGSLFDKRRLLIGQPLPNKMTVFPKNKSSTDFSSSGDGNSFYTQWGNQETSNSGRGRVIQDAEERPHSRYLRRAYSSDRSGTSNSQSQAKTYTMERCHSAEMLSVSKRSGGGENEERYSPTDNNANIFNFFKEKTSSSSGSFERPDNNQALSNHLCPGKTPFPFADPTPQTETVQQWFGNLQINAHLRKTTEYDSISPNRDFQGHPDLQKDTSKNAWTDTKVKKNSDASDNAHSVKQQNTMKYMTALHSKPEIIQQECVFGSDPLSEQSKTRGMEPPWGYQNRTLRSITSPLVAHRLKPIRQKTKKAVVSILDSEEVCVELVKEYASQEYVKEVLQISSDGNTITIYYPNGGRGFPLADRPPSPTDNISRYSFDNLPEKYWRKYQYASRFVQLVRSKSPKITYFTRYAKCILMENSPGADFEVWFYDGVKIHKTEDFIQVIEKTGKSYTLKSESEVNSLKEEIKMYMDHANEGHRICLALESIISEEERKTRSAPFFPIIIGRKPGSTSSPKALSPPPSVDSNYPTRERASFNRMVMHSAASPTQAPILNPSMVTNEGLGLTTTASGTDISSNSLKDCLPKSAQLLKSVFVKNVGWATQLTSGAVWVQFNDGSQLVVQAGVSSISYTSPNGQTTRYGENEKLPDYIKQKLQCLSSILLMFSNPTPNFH
# Method: as §2, §3
# (6.0 μCi/ml). After incubation of 60 minutes at room temperature, the reaction is stopped by addition of 40 μL of stop solution containing 8.7 mM EDTA, BSA 0.17%, 0.17% Triton X-100, 1.7 mg/ml SPA beads (GE-healthcare). The plate is centrifuged and read for Scintillation imaging on Leadseeker.
# H1299 = assay: Cellular proliferation assay (Alamar blue), H1299; assay type: cell-based; settings: Homo sapiens, NCI-H1299; 10% FCS; 72 hours with compound; Alamar blue 4 h
# Method: (§4) […] functional properties of these compounds were tested in cellular proliferation assays on a panel of different cell lines in the presence of 10% FCS serum (37° C. and 5% (v/v) CO2). In a first step these cells were seeded and incubated for 24 hours in the absence of compound. In the second step the cells were incubated for 72 hours with the compounds to be tested for 72 hours. The viable cell number was finally assessed in a standard Alamar blue cell viability assay.
# (§5) The viable cell number was assessed by incubation for either 4 h (HCT-116, H1299) 6 h (U87-MG) or 24 h (A2780, MDA-MB-231) with Alamar blue (Resazurin 9 μg/ml, K-Ferrocyanide 90 μM, K-Ferricyanide 90 μM) and the converted fluorescent product was quantified on a fluorescent plate reader (544 nm/590 nm). Effect of the compounds is calculated as of on control cells.
# A2780 = assay: Cellular proliferation assay (Alamar blue), A2780; assay type: cell-based; settings: Homo sapiens, 10% FCS, 72 hours with compound, Alamar blue 24 h, read-out: A2780 (cellular proliferation assay, Table 4) (converted)
# Method: as §4, §5
# MDA-MB-231 = assay: Cellular proliferation assay (Alamar blue), MDA-MB-231; assay type: cell-based; settings: Homo sapiens, 10% FCS, 72 hours with compound, Alamar blue 24 h, read-out: MDA/MB231 (cellular proliferation assay, Table 4) (converted)
# Method: as §4, §5
# GSK3β (h) = GSK3β (h) (Homo sapiens, UniProt P49841); assay: GSK-3β human kinase inhibition, SPA; assay type: biochemical; settings: read-out: GSK3b pIC50 (converted)
# Sequence of GSK3β (h) (P49841 whole entry): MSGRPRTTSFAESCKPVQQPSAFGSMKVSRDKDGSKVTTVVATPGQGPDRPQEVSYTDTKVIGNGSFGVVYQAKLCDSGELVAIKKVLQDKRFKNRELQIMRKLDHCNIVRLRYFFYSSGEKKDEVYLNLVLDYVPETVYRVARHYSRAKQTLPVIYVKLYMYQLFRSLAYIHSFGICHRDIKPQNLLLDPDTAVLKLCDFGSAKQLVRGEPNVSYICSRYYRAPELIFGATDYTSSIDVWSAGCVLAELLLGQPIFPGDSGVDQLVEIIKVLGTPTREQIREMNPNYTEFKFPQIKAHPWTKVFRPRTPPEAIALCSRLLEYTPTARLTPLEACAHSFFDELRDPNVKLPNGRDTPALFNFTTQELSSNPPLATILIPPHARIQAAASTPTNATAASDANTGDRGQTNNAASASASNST
# Method: as §1, §2, §3
# In a final reaction volume of 30 μl, GSK3β (h) (1 μg/ml) is incubated with 25 mM Tris pH 7.4, 10 mM MgCl2, 1 mM DTT, 1 μM peptide Biotin-[…]-OH, 1 μM ATP and 2 nM [γ-^33P-ATP] (6.0 μCi/ml). After incubation of 60 minutes at room temperature, the reaction is stopped by addition of 40 μL of stop solution containing 8.7 mM EDTA, BSA 0.17%, 0.17% Triton X-100, 6.25 mg/ml SPA beads (GE-healthcare). The plate is centrifuged and read for Scintillation imaging on Leadseeker.
# PLK2 (h) = PLK2 (h) (Homo sapiens, UniProt Q9NYY3); assay: PLK2 human kinase inhibition, SPA; assay type: biochemical; settings: read-out: PLK2 pIC50 (converted)
# Sequence of PLK2 (h) (Q9NYY3 whole entry): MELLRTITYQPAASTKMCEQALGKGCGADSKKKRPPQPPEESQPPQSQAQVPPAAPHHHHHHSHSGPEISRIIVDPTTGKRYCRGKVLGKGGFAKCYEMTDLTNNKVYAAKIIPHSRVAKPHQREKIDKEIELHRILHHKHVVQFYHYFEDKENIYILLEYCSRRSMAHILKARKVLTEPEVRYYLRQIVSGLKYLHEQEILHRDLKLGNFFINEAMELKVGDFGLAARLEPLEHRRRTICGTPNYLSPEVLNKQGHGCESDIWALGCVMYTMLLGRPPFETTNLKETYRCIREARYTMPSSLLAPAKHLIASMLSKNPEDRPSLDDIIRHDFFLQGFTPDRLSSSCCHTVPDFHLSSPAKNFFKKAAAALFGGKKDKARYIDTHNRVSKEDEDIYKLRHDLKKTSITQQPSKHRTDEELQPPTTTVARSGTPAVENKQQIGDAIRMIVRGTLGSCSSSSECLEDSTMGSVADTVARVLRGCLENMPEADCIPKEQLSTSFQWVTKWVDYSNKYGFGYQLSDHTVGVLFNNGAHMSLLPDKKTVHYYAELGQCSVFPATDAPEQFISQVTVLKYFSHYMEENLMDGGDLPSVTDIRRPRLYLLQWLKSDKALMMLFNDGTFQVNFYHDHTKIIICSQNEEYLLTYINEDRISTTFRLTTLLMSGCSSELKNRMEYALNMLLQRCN
# Method: as §1, §2, §3
# (§6) In a final reaction volume of 30 μl, PLK2 (h) (30 μg/ml) is incubated with 50 mM Hepes pH 8.0, 2 mM MnCl2, 1 mM DTT, 2 μM of peptide Biotin-Tds linker-[…], 0.1 μM ATP and 2 nM [γ-^33P-ATP] (6.0 μCi/ml). After incubation of 20 minutes at room temperature, the reaction is stopped by addition of 40 μL of stop solution containing 8.7 mM EDTA, BSA 0.17%, 0.17% Triton X-100, 25 mg/ml SPA beads (GE-healthcare). The plate is centrifuged and read for Scintillation imaging on Leadseeker.
# CDK1/CyclinB (h) = CDK1/CyclinB (h) (Homo sapiens, UniProt P06493); assay: CDK1/CyclinB human kinase inhibition, Invitrogen's FRET assay (Z'lyte); assay type: biochemical; settings: read-out: CDK1 pIC50 (converted)
# Sequence of CDK1/CyclinB (h) (P06493 whole entry): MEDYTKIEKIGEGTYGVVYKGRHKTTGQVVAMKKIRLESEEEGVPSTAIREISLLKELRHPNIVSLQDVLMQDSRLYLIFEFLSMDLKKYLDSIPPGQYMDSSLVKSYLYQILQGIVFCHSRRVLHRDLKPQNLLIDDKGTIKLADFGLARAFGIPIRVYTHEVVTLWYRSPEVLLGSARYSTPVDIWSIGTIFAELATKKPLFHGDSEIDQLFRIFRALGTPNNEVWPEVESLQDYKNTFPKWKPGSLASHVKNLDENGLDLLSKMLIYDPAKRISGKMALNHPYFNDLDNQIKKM
# Sequence of CDK1/CyclinB (h) (P14635 whole entry partner): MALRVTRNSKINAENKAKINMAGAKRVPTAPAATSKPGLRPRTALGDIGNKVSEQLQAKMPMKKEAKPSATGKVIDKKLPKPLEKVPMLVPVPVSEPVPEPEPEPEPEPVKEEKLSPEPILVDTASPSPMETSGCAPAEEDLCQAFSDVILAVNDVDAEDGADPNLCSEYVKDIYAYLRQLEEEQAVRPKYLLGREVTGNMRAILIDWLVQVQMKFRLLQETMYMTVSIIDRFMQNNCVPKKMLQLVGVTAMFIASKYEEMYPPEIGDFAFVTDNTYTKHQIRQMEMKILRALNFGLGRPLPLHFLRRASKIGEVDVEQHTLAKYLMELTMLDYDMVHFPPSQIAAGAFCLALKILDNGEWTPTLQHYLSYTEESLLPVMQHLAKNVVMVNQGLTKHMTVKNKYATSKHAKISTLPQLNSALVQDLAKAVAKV
# Method: as §1, §3
# In a final reaction volume of 10 μl, CDK1/CyclinB (h) (0.2 μg/ml) is incubated with 50 mM Hepes pH 7.5, 10 mM MgCl2, 1 mM EGTA, 0.01% Brij-35, 2 μM Z'lyte Ser/Thr peptide 12 and 10 μM ATP (Invitrogen's FRET assay). After incubation of 60 minutes at room temperature, the reaction is stopped by addition of 5 μL development reagent containing protease mix. After 60 minutes room temperature the development reaction is stopped by adding 5 μl stop solution. The plate is then read in fluorescence plate reader with excitation: 390 nm and dual emission: 460 and 538 nm. Emission ratio is determined to the formula=Emission signal intensity at 460 nm/Emission signal intensity at 538 nm.
# U87-MG = assay: Cellular proliferation assay (Alamar blue), U87-MG; assay type: cell-based; settings: Homo sapiens, U-87 MG; 10% FCS; 72 hours with compound; Alamar blue 6 h; read-out: U87-MG (cellular proliferation assay, Table 4) (converted)
# Method: as §4, §5
# HCT-116 = assay: Cellular proliferation assay (Alamar blue), HCT-116; assay type: cell-based; settings: Homo sapiens, 10% FCS, 72 hours with compound, Alamar blue 4 h
# Method: as §4, §5
# PLK3 (h) = PLK3 (h) (Homo sapiens, UniProt Q9H4B4); assay: PLK3 human kinase inhibition, SPA; assay type: biochemical; settings: read-out: PLK3 pIC50 (converted)
# Sequence of PLK3 (h) (Q9H4B4 whole entry): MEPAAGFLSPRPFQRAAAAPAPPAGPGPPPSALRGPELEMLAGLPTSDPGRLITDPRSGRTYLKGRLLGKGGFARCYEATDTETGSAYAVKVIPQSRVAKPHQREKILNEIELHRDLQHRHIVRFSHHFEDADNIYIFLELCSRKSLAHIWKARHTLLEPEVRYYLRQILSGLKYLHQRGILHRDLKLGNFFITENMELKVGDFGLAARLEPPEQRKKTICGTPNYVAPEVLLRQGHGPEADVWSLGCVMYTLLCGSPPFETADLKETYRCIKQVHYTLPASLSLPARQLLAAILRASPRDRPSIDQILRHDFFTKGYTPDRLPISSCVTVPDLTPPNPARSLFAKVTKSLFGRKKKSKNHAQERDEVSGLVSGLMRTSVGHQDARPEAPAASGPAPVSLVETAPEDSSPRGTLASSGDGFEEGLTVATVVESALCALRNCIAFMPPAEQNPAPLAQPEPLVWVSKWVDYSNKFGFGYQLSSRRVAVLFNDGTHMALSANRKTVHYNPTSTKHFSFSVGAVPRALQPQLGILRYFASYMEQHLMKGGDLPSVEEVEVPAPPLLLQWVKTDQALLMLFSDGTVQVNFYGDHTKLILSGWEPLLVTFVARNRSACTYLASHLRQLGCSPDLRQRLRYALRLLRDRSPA
# Method: as §1, §2, §3
# as §6, with “PLK3” for “PLK2”
# AuroraB (h) = AuroraB (h) (Homo sapiens, UniProt Q96GD4); assay: Aurora-B human kinase inhibition, SPA; assay type: biochemical; settings: read-out: AuroraB pIC50 (converted)
# Sequence of AuroraB (h) (Q96GD4 whole entry): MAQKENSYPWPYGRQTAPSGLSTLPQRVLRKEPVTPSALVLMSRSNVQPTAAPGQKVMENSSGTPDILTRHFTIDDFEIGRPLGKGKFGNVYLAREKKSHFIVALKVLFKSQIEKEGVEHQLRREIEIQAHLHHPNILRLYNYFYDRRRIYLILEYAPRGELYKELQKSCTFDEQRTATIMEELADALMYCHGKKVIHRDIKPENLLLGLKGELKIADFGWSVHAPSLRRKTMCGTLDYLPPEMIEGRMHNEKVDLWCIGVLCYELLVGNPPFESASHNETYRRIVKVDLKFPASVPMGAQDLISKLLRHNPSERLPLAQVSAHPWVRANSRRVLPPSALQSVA
# Method: as §1, §2, §3
# In a final reaction volume of 30 μl, AuroraB (h) (0.5 μg/ml) is incubated with 60 mM Hepes pH 7.5, 3 mM MgCl2, 3 mM MnCl2, 3 μM Na3VO4, 0.05 mg/ml PEG, 2 mM DTT, 3 μM Biotin-[…]-OH, 0.5 μM ATP and 2.2 nM [γ-^33P-ATP] (6.8 μCi/ml). After incubation of 60 minutes at room temperature, the reaction is stopped by addition of 40 μL of stop solution containing 8.7 mM EDTA, BSA 0.17%, 0.17% Triton X-100, 5 mg/ml SPA beads (GE-healthcare). The plate is centrifuged and read for Scintillation imaging on Leadseeker.
# Sequence of PLK1 T210D (h) (P53350 whole entry T210D): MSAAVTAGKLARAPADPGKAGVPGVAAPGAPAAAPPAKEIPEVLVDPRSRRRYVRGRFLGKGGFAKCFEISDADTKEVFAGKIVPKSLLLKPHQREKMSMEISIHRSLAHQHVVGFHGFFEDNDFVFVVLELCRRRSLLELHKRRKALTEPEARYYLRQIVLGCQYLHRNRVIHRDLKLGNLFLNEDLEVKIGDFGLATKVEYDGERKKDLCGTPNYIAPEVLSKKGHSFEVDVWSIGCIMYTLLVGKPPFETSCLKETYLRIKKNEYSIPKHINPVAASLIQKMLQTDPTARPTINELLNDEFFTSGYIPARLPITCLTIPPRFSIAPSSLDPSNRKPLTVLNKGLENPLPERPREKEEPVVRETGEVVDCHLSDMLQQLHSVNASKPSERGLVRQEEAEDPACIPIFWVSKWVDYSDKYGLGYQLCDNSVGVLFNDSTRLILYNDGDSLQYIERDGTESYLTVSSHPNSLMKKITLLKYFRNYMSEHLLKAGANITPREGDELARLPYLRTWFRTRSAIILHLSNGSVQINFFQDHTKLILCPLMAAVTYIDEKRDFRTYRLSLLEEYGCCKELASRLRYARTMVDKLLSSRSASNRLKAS
Structure (SMILES),IC50 (PLK1 T210D (h)),IC50 (PLK4 (h)),pIC50 (H1299),IC50 (A2780),IC50 (MDA-MB-231),IC50 (GSK3β (h)),IC50 (PLK2 (h)),IC50 (CDK1/CyclinB (h)),IC50 (U87-MG),pIC50 (HCT-116),IC50 (PLK3 (h)),IC50 (AuroraB (h))
CC(C)Nc1cc2cc(c1)Nc1nccc(n1)-c1ccc(cc1)CN(C)CCCNC(=O)[C@H](CO)NC2 [Compound 111],> 10 µM,0.813 µM,< 5.00,> 10 µM,> 10 µM,> 10 µM,> 3.02 µM,> 10 µM,> 10 µM,< 5.00,> 10 µM,> 10 µM
COc1ccc2cc1CN(C)CCNC(=O)[C@H](C)NCc1cc(ccc1N1CCOCC1)Nc1nccc-2n1 [Compound 116],> 10 µM,1.48 µM,< 5.00,> 10 µM,> 10 µM,> 10 µM,> 10 µM,> 10 µM,5.75 µM,5.39,> 10 µM,> 10 µM
O=C1NCCNCc2ccc(cc2)-c2ccnc(n2)Nc2ccc(N3CCOCC3)c(c2)CN[C@H]1Cc1ccccc1 [Compound 117],> 10 µM,2.24 µM,5.12,6.03 µM,> 10 µM,1 µM,> 10 µM,> 10 µM,3.89 µM,5.37,> 10 µM,> 10 µM
CN1CCCNC(=O)CN2CCN(CC2)Cc2cc(cc(N3CCOCC3)c2)Nc2nccc(n2)-c2ccc(cc2)C1 [Compound 136],> 10 µM,1.82 µM,5.52,2.34 µM,> 10 µM,6.76 µM,> 10 µM,> 10 µM,1.7 µM,6.45,> 10 µM,> 10 µM

# Second part, the molecule after the results:
IC50 (PLK1 T210D (h)),IC50 (PLK4 (h)),pIC50 (H1299),IC50 (A2780),IC50 (MDA-MB-231),IC50 (GSK3β (h)),IC50 (PLK2 (h)),IC50 (CDK1/CyclinB (h)),IC50 (U87-MG),pIC50 (HCT-116),IC50 (PLK3 (h)),IC50 (AuroraB (h)),Structure (SMILES)
> 10 µM,0.912 µM,< 5.00,> 10 µM,> 10 µM,3.89 µM,> 10 µM,> 10 µM,> 10 µM,< 5.00,> 10 µM,3.31 µM,COc1ccc2cc1CN(C)CCCNC(=O)[C@H](CO)NCc1cc(Br)cc(c1)Nc1nccc-2n1 [Compound 112]
> 10 µM,7.08 µM,< 5.00,> 10 µM,> 10 µM,> 10 µM,> 10 µM,> 10 µM,> 10 µM,< 5.00,> 10 µM,> 10 µM,COc1ccc2cc1CN(C)CCNC(=O)[C@H](CO)NCc1cccc(c1)Nc1nccc-2n1 [Compound 120]
> 10 µM,8.13 µM,< 5.00,> 10 µM,> 10 µM,2.75 µM,> 10 µM,1.91 µM,> 10 µM,< 5.00,> 10 µM,> 10 µM,O=C1NCc2cccc(c2)-c2ccnc(n2)Nc2cc(ccc2Cl)CN2CCC1CC2 [Compound 123]
> 10 µM,1.02 µM,< 5.00,> 10 µM,> 10 µM,1.95 µM,> 10 µM,1.38 µM,7.94 µM,< 5.00,> 10 µM,> 10 µM,CC(C)Nc1cc2cc(c1)Nc1nccc(n1)-c1ccc(cc1)CN(C)CCNC(=O)CN1CCN(CC1)C2 [Compound 128]
> 10 µM,1.12 µM,< 5.00,> 10 µM,> 10 µM,0.49 µM,> 10 µM,4.17 µM,4.9 µM,5.07,> 3.02 µM,> 10 µM,CN1CCNC(=O)CN2CCN(CC2)Cc2cc(Br)cc(c2)Nc2nccc(n2)-c2ccc(cc2)C1 [Compound 129]
> 10 µM,2.19 µM,< 5.00,7.41 µM,> 10 µM,> 10 µM,> 10 µM,> 10 µM,2.09 µM,5.13,> 10 µM,> 10 µM,O=C1CN2CCN(CC2)Cc2cc(ccc2N2CCOCC2)Nc2nccc(n2)-c2ccc(cc2)CNCCCN1 [Compound 139]
> 10 µM,0.832 µM,< 5.00,> 10 µM,> 10 µM,0.1 µM,> 10 µM,5.89 µM,> 10 µM,5.37,> 10 µM,> 10 µM,COc1cc2cc(c1OC)CNC(=O)[C@@H]1CCCN1Cc1cccc(c1)-c1ccnc(n1)N2 [Compound 150]
